Structures are written as SMILES. pEC50: −log10 of the molar value.

The target in this assay is T1, human pancreas Glucokinase (GK) (Homo sapiens, UniProt P35557).
T1 construct: His6; made in house; host or cells: Escherichia coli
T1 sequence (P35557 1-465): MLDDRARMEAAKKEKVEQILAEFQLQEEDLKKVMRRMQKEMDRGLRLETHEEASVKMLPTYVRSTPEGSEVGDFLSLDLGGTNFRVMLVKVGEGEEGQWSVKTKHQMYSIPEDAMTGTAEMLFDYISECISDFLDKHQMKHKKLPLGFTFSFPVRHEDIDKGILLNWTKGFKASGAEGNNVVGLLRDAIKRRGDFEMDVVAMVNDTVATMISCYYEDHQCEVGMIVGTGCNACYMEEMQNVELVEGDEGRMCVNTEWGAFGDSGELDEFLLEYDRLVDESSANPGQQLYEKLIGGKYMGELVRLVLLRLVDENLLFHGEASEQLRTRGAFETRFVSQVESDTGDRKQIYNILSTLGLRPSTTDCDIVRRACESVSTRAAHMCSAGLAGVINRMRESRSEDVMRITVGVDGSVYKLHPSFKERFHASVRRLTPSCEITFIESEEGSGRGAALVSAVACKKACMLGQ
The experiment in a line: Glucokinase enzyme assay, pancreas GK. The following applies: for activation at 50 µM: increase in GK activity above vehicle control, compound 50 μM, 12 mM glucose; for pEC50: concentration that produces 50% activation above vehicle control; for EC100%: concentration that produces 100% activation above vehicle control. Format: biochemical. The text has this:
An enzymatic Glucokinase (GK) assay using purified recombinant human liver/pancreas enzyme was used to evaluate the effects of potential small molecule modulators.
In this assay, GK catalyzes glucose phosphorylation in the presence of ATP. The product of this reaction, glucose-6-phosphate, was then oxidized by an excess of glucose-6-phosphate dehydrogenase to produce gluconate-6-phosphate with concomitant reduction of nicotinamide adenine dinucleotide (NAD). […] Human GK (Liver/Pancreas) was expressed in Escherichia coli as a (His) 6-tagged fusion protein and was purified by metal chelate affinity chromatography. The assay was performed in a final incubation volume of 80 μl in a 96-well clear low UV absorption plates. The incubation mixture consisted of 25 mM HEPES, 2 mM MgSO4, 1 mM dithiothreotol (DTT), 1 mg/mL bovine serum albumin (BSA), 1 mM ATP, 1 mM NAD, and 12 mM glucose, 10 units per mL glucose-6-phosphate dehydrogenase, and +/−300 ng per mL GK. For determination of the affinity (Km) and Vmax, different concentrations of glucose ranging from 0.5 mM to 40 mM were used in the assay; see Grimsby, J., Sarabu, R.; Grippo, J. F.; et. al. Science 2003, 301, 370-373. […] EC50% (μM) was calculated as the effective concentration of the compound that produces 50% activation above the vehicle control, and EC100% (μM) was calculated as the effective concentration of the compound that produces 100% activation above the vehicle control.

`O=C(CC1c2ccccc2C(=O)N1Cc1ccc(F)cc1)Nc1ccc(C(=O)O)cn1` (stereo not drawn) [Compound 6, 6-{2-[2-(4-Fluoro-benzyl)-3-oxo-2,3-dihydro-1H-isoindol-1-yl]-acetylamino}-nicotinic acid] came in with an activation at 50 µM of 7.92%.

As to `O=C(CCC1c2ccccc2C(=O)N1Cc1ccc(F)cc1)Nc1ccc(C(=O)O)cn1` (stereo not drawn) [Compound 7, 6-{3-[2-(4-Fluoro-benzyl)-3-oxo-2,3-dihydro-1H-isoindol-1-yl]-propionylamino}-nicotinic acid], the negative-log EC50 (pEC50) (usually the EC50 on a negative log10 scale, so that one unit is a factor of ten) was 5.41; the “EC100%” value turned out to be 15 µM; the activation at 50 µM came out at 153%.

On to `COc1ccc(CN2C(=O)c3ccccc3C2CCC(=O)Nc2ccc(C(=O)O)cn2)cc1` (stereo not drawn) [Compound 8, 6-{3-[2-(4-Methoxy-benzyl)-3-oxo-2,3-dihydro-1H-isoindol-1-yl]-propionylamino}-nicotinic acid], for which the pEC50 was 5.49, the “EC100%” value was 11 µM and the activation at 50 µM turned out to be 167%.

As for `COC(=O)c1ccc(NC(=O)CCC2c3ccccc3C(=O)N2Cc2ccc(OC)cc2)nc1` (stereo not drawn) [Compound 9, 6-{3-[2-(4-Methoxy-benzyl)-3-oxo-2,3-dihydro-1H-isoindol-1-yl]-propionylamino}-nicotinic acid methyl ester], the pEC50 was 6.40, the “EC100%” value turned out to be 1.7 µM and the activation at 50 µM came to 172%.

In turn, `COc1ccc(CN2C(=O)c3ccccc3C2CCS(=O)(=O)Nc2nccs2)cc1` (stereo not drawn) [Compound 10, 2-[2-(4-Methoxy-benzyl)-3-oxo-2,3-dihydro-1H-isoindol-1-yl]-ethanesulfonic acid thiazol-2-ylamide] gave an activation at 50 µM of 15.8%.

`O=C(CCC1c2c(F)cccc2C(=O)N1Cc1ccc(F)cc1)Nc1ccc(C(=O)O)cn1` (stereo not drawn) [Compound 11, 6-{3-[7-Fluoro-2-(4-fluoro-benzyl)-3-oxo-2,3-dihydro-1H-isoindol-1-yl]-propionylamino}-nicotinic acid]: the negative logarithm of the EC50 (pEC50) was 7.17, the “EC100%” value turned out to be 0.128 µM and the activation at 50 µM worked out at 229%.

Turning to `O=C(CCC1c2c(F)cccc2C(=O)N1Cc1ccc(F)cc1)Nc1ccccn1` (stereo not drawn) [Compound 12, 3-[7-Fluoro-2-(4-fluoro-benzyl)-3-oxo-2,3-dihydro-1H-isoindol-1-yl]-N-pyridin-2-vi-propionamide], the pEC50 is 7.03, the “EC100%” value came out at 0.74 µM and the activation at 50 µM is 179%.

For `O=C(CCC1c2c(F)cccc2C(=O)N1Cc1ccc(F)cc1)Nc1cnccn1` (stereo not drawn) [Compound 13, 3-[7-Fluoro-2-(4-fluoro-benzyl)-3-oxo-2,3-dihydro-1H-isoindol-1-yl]-N-pyrazin-2-yl-propionamide], the pEC50 was 6.62, the “EC100%” value came to 0.88 µM and the activation at 50 µM was 272%.

Regarding `O=C(CCC1c2c(F)cccc2C(=O)N1Cc1ccc(F)cc1)Nc1ccc(F)cn1` (stereo not drawn) [Compound 14, 3-[7-Fluoro-2-(4-fluoro-benzyl)-3-oxo-2,3-dihydro-1H-isoindol-1-yl]-N-(5-fluoro-pyridin-2-yl)-propionamide], the pEC50 was 6.97, the “EC100%” value is 0.699 µM and the activation at 50 µM was determined as 219%.

`O=C(CCC1c2cccc(F)c2C(=O)N1Cc1ccc(F)cc1)Nc1ccc(C(=O)O)cn1` (stereo not drawn) [Compound 15, 6-{3-[4-Fluoro-2-(4-fluoro-benzyl)-3-oxo-2,3-dihydro-1H-isoindol-1-yl]-propionylamino}-nicotinic acid]: the pEC50 was 6.28, the “EC100%” value stood at 3.4 µM and the activation at 50 µM is 188%.

Turning to `O=C(Nc1ccccn1)OCCC1c2c(F)cccc2C(=O)N1Cc1ccc(F)cc1` (stereo not drawn) [Compound 16, Pyridin-2-yl-carbamic acid 2-[7-fluoro-2-(4-fluoro-benzyl)-3-oxo-2,3-dihydro-1H-isoindol-1-yl]-ethyl ester], the activation at 50 µM was found to be 13.8%.

Molecule `O=C(Nc1ccccn1)OCCC1c2cccc(F)c2C(=O)N1Cc1ccc(F)cc1` (stereo not drawn) [Compound 17, Pyridin-2-yl-carbamic acid 2-[4-fluoro-2-(4-fluoro-benzyl)-3-oxo-2,3-dihydro-1H-isoindol-1-yl]-ethyl ester] returned an activation at 50 µM of 23.8%.

Consider `O=C(CCC1c2c(F)ccc(F)c2C(=O)N1Cc1ccc(F)cc1)Nc1ccc(C(F)(F)F)cn1` (stereo not drawn) [Compound 18, 3-[4,7-Difluoro-2-(4-fluoro-benzyl)-3-oxo-2,3-dihydro-1H-isoindol-1-yl]-N-(5-trifluoromethyl-pyridin-2-yl)-propionamide], for which the pEC50 was 5.70, the “EC100%” value was 46 µM and the activation at 50 µM came to 95%.

For `COc1ccc(CN2C(=O)c3ccccc3C2COC(=O)Nc2ccccn2)cc1` (stereo not drawn) [Compound 19, Pyridin-2-yl-carbamic acid 2-(4-methoxy-benzyl)-3-oxo-2,3-dihydro-1H-isoindol-1-ylmethyl ester], the pEC50 was 5.32, the “EC100%” value was 70 µM and the activation at 50 µM was 115%.

For the molecule `O=C(CCC1c2c(F)ccc(F)c2C(=O)N1Cc1ccc(F)cc1)Nc1ccc(C(=O)O)cn1` (stereo not drawn) [Compound 20, 6-{3-[4,7-Difluoro-2-(4-fluoro-benzyl)-3-oxo-2,3-dihydro-1H-isoindol-1-yl]-propionylamino}-nicotinic acid], the negative logarithm of the EC50 (pEC50) was 6.69, the “EC100%” value was 0.65 µM and the activation at 50 µM amounted to 302%.

As to `CCOC(=O)c1csc(NC(=O)CCC2c3c(F)ccc(F)c3C(=O)N2Cc2ccc(F)cc2)n1` (stereo not drawn) [Compound 21, 2-{3-[4,7-Difluoro-2-(4-fluoro-benzyl)-3-oxo-2,3-dihydro-1H-isoindol-1-yl]-propionylamino}thiazole-4-carboxylic acid ethyl ester], the pEC50 is 5.51, the “EC100%” value stood at 26.6 µM and the activation at 50 µM is 94.4%.

On to `O=C(O)Cc1csc(NC(=O)CCC2c3c(F)ccc(F)c3C(=O)N2Cc2ccc(F)cc2)n1` (stereo not drawn) [Compound 22, (2-{3-[4,7-Difluoro-2-(4-fluoro-benzyl)-3-oxo-2,3-dihydro-1H-isoindol-1-yl]-propionylamino}-thiazol-4-yl)-acetic acid], for which the pEC50 was 4.68, the “EC100%” value turned out to be 188 µM and the activation at 50 µM is 73.7%.

Molecule `CCOC(=O)c1ccnc(NC(=O)CCC2c3c(F)cccc3C(=O)N2Cc2ccc(F)cc2)c1` (stereo not drawn) [Compound 23, 2-{3-[7-Fluoro-2-(4-fluoro-benzyl)-3-oxo-2,3-dihydro-1H-isoindol-1-yl]-propionylamino}-isonicotinic acid ethyl ester] displayed an activation at 50 µM of 30.6%.

Consider `COc1ccc(CN2C(=O)c3ccccc3C2CNC(=O)Nc2ccccn2)cc1` (stereo not drawn) [Compound 24, 1-[2-(4-Methoxy-benzyl)-3-oxo-2,3-dihydro-1H-isoindol-1-ylmethyl]-3-pyridin-2-yl-urea], for which the activation at 50 µM came out at 4.39%.

With `O=C(CCC1c2c(F)ccc(F)c2C(=O)N1Cc1ccc(F)cc1)Nc1nc(C(=O)O)cs1` (stereo not drawn) [Compound 25, 2-{3-[4,7-Difluoro-2-(4-fluoro-benzyl)-3-oxo-2,3-dihydro-1H-isoindol-1-yl]-propionylamino}-thiazole-4-carboxylic acid], the activation at 50 µM came to 72.5%.

As for `COC(=O)c1ccc(NC(=O)CCC2c3c(F)cccc3C(=O)N2Cc2ccc(F)cc2)nc1` (stereo not drawn) [Compound 26, 6-{3-[7-Fluoro-2-(4-fluoro-benzyl)-3-oxo-2,3-dihydro-1H-isoindol-1-yl]-propionylamino}-nicotinic acid methyl ester], the pEC50 was 7.60, the “EC100%” value was found to be 0.46 µM and the activation at 50 µM came to 173%.

`O=C(CCC1c2c(F)cccc2C(=O)N1Cc1ccc(F)cc1)Nc1ncc(Br)s1` (stereo not drawn) [Compound 27, N-(5-Bromo-thiazol-2-yl)-3-[7-fluoro-2-(4-fluoro-benzyl)-3-oxo-2,3-dihydro-1H-isoindol-1-yl]-propionamide]: the pEC50 is 4.40 and the activation at 50 µM is 65%.

Regarding `O=C(CCC1c2c(F)cccc2C(=O)N1Cc1ccc(F)cc1)Nc1ccc2ccccc2n1` (stereo not drawn) [Compound 28, 3-[7-Fluoro-2-(4-fluoro-benzyl)-3-oxo-2,3-dihydro-1H-isoindol-1-yl]-N-quinolin-2-yl-propionamide], the pEC50 was 6.89, the “EC100%” value came out at 6.3 µM and the activation at 50 µM was 120%.

Values taken from patent US8796313B2, “Substituted dihydroisoindolones as allosteric modulators of glucokinase” (Janssen Pharmaceutica N.V., priority 2005, dated 2014).
